Data: patent publication US4791118A, “Quinolonecarboxylic acid derivatives and their preparation” (Kyorin Pharmaceutical Co., Ltd., priority 1985, dated 1988)
≈ marks a conversion by molar mass, not a printed value. Like-named read-outs stand apart in the source and are kept apart here.

Tests used:
[1] = test system: gram-positive bacteria; settings: cited from earlier work
[2] = test system: gram-negative bacteria; settings: than that of the prior compounds (e.g. norfloxacin, ciprofloxacin); cited from earlier work
[3] = test system: Acinetobacter anitratus IID 876; test: MIC, aerobic bacteria; format: cell-based; settings: Acinetobacter calcoaceticus, IID876, Gram -, 10^6 cells/ml
Text: (§1) | Organism (10^6 cells/ml)

[4] = test system: Citrobacter freundii IID 976; test: MIC, aerobic bacteria; format: cell-based; settings: IID976, Gram -, 10^6 cells/ml
Text: as §1

[5] = test system: E. coli ATCC 10536; test: MIC, aerobic bacteria; format: cell-based; settings: Escherichia coli, ATCC10536, Gram -, 10^6 cells/ml
Text: as §1

[6] = test system: Escherichia coli NIHJ JC-2; test: MIC, aerobic bacteria; format: cell-based; settings: NIHJJC2, Gram -, 10^6 cells/ml
Text: as §1

[7] = test system: Klebsiella pneumoniae KY(GN)6445; test: MIC, aerobic bacteria; format: cell-based; settings: Gram -, 10^6 cells/ml
Text: as §1

[8] = test system: Morganella morganii IID 602; test: MIC, aerobic bacteria; format: cell-based; settings: IID602, Gram -, 10^6 cells/ml
Text: as §1

[9] = test system: P. mirabilis IID 992; test: MIC, aerobic bacteria; format: cell-based; settings: Proteus mirabilis, IID992, Gram -, 10^6 cells/ml
Text: as §1

[10] = test system: Proteus vulgaris IFO 3167; test: MIC, aerobic bacteria; format: cell-based; settings: IFO3167, Gram -, 10^6 cells/ml
Text: as §1

[11] = test system: S. aureus IID 670 (Terajima); test: MIC, aerobic bacteria; format: cell-based; settings: Staphylococcus aureus, IID670, Gram +, 10^6 cells/ml
Text: as §1

[12] = test system: S. epidermidis IID 866; test: MIC, aerobic bacteria; format: cell-based; settings: Staphylococcus epidermidis, IID866, Gram +, 10^6 cells/ml
Text: as §1

[13] = test system: Serratia marcescens IID 618; test: MIC, aerobic bacteria; format: cell-based; settings: IID618, Gram -, 10^6 cells/ml
Text: as §1

[14] = test system: B. distasonis 8503; test: MIC, anaerobic bacteria; format: cell-based; settings: Parabacteroides distasonis, Gram -, 10^6 cells/ml
Text: as §1

[15] = test system: B. fragilis 0558; test: MIC, anaerobic bacteria; format: cell-based; settings: Bacteroides fragilis, Gram -, 10^6 cells/ml
Text: as §1

[16] = test system: B. fragilis 25285; test: MIC, anaerobic bacteria; format: cell-based; settings: Bacteroides fragilis, Gram -, 10^6 cells/ml
Text: as §1

[17] = test system: B. vulgatus KYA 29327; test: MIC, anaerobic bacteria; format: cell-based; settings: Phocaeicola vulgatus, KYA29327, Gram -, 10^6 cells/ml
Text: as §1

[18] = test system: Bacteroides fragilis GM 7000; test: MIC, anaerobic bacteria; format: cell-based; settings: GM7000, Gram -, 10^6 cells/ml
Text: as §1

[19] = test system: Fusobacterium mortiferum 4249; test: MIC, anaerobic bacteria; format: cell-based; settings: Gram -, 10^6 cells/ml
Text: as §1

[20] = test system: Pst. micros UPI 5464-1; test: MIC, anaerobic bacteria; format: cell-based; settings: Parvimonas micra, UPI54641, Gram +, 10^6 cells/ml
Text: as §1

[21] = test system: Veillonella parvula KYA 10790; test: MIC, anaerobic bacteria; format: cell-based; settings: KYA10790, Gram -, 10^6 cells/ml
Text: as §1

[22] = test system: Pseudomonas aeruginosa V-1; test: MIC, aerobic bacteria; settings: V1
[23] = test system: Alcaligenes faecalis 0114002; test: MIC, aerobic bacteria
[24] = test system: Eubacterium limosum KYA 8486; test: MIC, anaerobic bacteria; settings: KYA8486
[25] = test system: C. ramosum; test: MIC, anaerobic bacteria; settings: Thomasclavelia ramosa
[26] = test system: Bacillus subtilis PCI 219; test: microbe, parasite or virus in culture; settings: PCI219
[27] = test system: Staphylococcus aureus 209 P; test: microbe, parasite or virus in culture
[28] = test system: S. aureus Smith; test: microbe, parasite or virus in culture; settings: Staphylococcus aureus
[29] = test system: K. pneumoniae 1-220S; test: microbe, parasite or virus in culture; settings: Klebsiella pneumoniae, 1220S
[30] = test system: Salmonella enteritidis IID 604; test: microbe, parasite or virus in culture; settings: Salmonella enterica
[31] = test system: Yersinia enterocolitica IID 981; test: microbe, parasite or virus in culture; settings: IID981

For `CCNCC1CCN(c2c(F)cc3c(=O)c(C(=O)O)cn(CC)c3c2F)C1` (centres unmarked) [CI-934], the “activity against gram-positive bacteria” value ([1]; prior drugs, e.g. CI-934) is given as “relatively strong activity” and the “activity against gram-negative bacteria” value [2] is given as “weaker activity”.
`O=C(O)c1cn(C2CC2)c2cc(N3CCNCC3)c(F)cc2c1=O` [CPFX, ciprofloxacin, reference compound] showed an MIC [3] of 0.2 µg/mL (≈ 0.604 µM), an MIC [4] of 0.025 µg/mL (≈ 0.0754 µM) and an MIC [5] of 0.025 µg/mL (≈ 0.0754 µM). For the same molecule, the MIC [6] was at most 0.0063 µg/mL, the MIC [7] was 0.025 µg/mL (≈ 0.0754 µM) and the MIC [8] was 0.05 µg/mL (≈ 0.151 µM). For the same molecule, the MIC [9] was 0.025 µg/mL (≈ 0.0754 µM), the MIC [10] was 0.025 µg/mL (≈ 0.0754 µM) and the MIC [11] was 0.1 µg/mL (≈ 0.302 µM). The MIC [12] was 0.1 µg/mL (≈ 0.302 µM), the MIC [13] was 0.05 µg/mL (≈ 0.151 µM) and the MIC [14] was 6.25 µg/mL (≈ 18.9 µM). For the same molecule, the MIC [15] was 3.13 µg/mL (≈ 9.45 µM), the MIC [16] was 6.25 µg/mL (≈ 18.9 µM) and the MIC [17] was 25 µg/mL (≈ 75.4 µM). It also gave an MIC [18] of 6.25 µg/mL (≈ 18.9 µM), an MIC [19] of 3.13 µg/mL (≈ 9.45 µM) and an MIC [20] of 0.2 µg/mL (≈ 0.604 µM). It also gave an MIC [21] of 0.2 µg/mL (≈ 0.604 µM), an MIC [22] of 0.05 µg/mL (≈ 0.151 µM) and an MIC [23] of 0.2 µg/mL (≈ 0.604 µM). The MIC [24] was 3.13 µg/mL (≈ 9.45 µM), the MIC [25] was 6.25 µg/mL (≈ 18.9 µM) and the MIC [26] was 0.05 µg/mL (≈ 0.151 µM). It also gave an MIC [27] of 0.2 µg/mL (≈ 0.604 µM), an MIC [28] of 0.2 µg/mL (≈ 0.604 µM) and an MIC [29] of 0.05 µg/mL (≈ 0.151 µM). For the same molecule, the MIC [30] was 0.025 µg/mL (≈ 0.0754 µM) and the MIC [31] was 0.05 µg/mL (≈ 0.151 µM).
For `CCn1cc(C(=O)O)c(=O)c2cc(F)c(N3CCNCC3)cc21` [norfloxacin], the “activity against gram-positive bacteria” value ([1]; compared with gram-negative bacteria) is given as “fairly less than that against gram-negative bacteria”.
